Measurements published in patent US20100183524A1, “ANTIOXIDANT COMPOSITIONS FOR SOFT ORAL TISSUE AND METHODS OF FORMULATION AND USE THEREOF” (Perio Sciences, LLC, priority 2008, published 2010).

Tests used:
[1] = system: Human periodontal ligament fibroblasts (HPDL)
Experimental: Culture conditions as described in HGF were similarly employed in the HPDL cells. In this experiment, 5×10^3 cells in 100 μL of culture medium were seeded into each well of a 96-well plate. […] Bioactive antioxidant mixtures tested included: resveratrol, ferulic acid and tetrahydrocurcuminoids (RFT), phloretin, ferulic acid and resveratrol (PFR), phloretin, ferulic acid and tetrahydrocurcuminoids (PFT).
Cells were washed with PBS and treated with antioxidant mixtures (RFT, PFR, PFT) in 0.1% FBS medium (DMEM and 1% antimycotic/antiobiotic) for 24 hours.
Different ethanol concentrations (15%, 10% and 5%) were used for dose response experiments for 30 or 60 minutes.
After pretreatment with ethanol or H2O2, the cells were rinsed and treated with 10^−5M (0.4% wt/v) antioxidant mixture (RFT, PFR, PFT) for 24 hrs.
(§3) Cell viability and survival were assessed by MTS colorimetric assay (3-[4,5-dimethylthiazol-2-yl]-5-[3-carboxymethoxyphenyl]-2-[4-sulfophenyl]-2H-tetrazolium) (Promega Corp., Madison, Wis.). This quantitative assay detects living but not dead cells. […] The absorbance at 490 nm was measured using a SpectraMax microplate spectrophotometer (Molecular Devices, Sunnyvale, Calif.). […]
a. Percent viable cells were expressed as; A/B, where A is absorbance at 490 nm with antioxidant compounds (RFT, PFR, PFT) and H2O2 or Ethanol pre-treatments; B absorbance at 490 nm with 0.1% FBS (control). […]

[2] = system: human gingival fibroblasts (HGF)
Experimental: Human gingival tissues from healthy nonsmokers were collected with institutional review board approval and tissues were cultured in high glucose Dulbecco's modified eagles medium (DMEM), 10% FBS, and 1% antimycotic/antiobiotic. Tissues were incubated at 37° C. in a humidified gas mixture (5% CO2 and 95% air) and medium was changed every 24 hours. Human gingival fibroblasts (HGF) grew from the tissue after a week. Cells were passaged using 0.25% trypsin solutions and plated in new tissue culture flasks when confluent. Passages 3-12 were used in all of the experiments.
In this experiment, 5×10^3 cells in 100 μL of culture medium were seeded into each well of a 96-well plate. […]
as §3
Percent viable cells were expressed as; A/B, where A is absorbance at 490 nm with antioxidant compounds (RFT, PFR, PFT) and H2O2 or Ethanol pre-treatments; B absorbance at 490 nm with 0.1% FBS (control). […]

[3] = system: Rac-GTP in HGF cells; test: Rac-GTP immunofluorescence in scratch wound assay, nicotine-exposed HGF; format: cell-based, human
Experimental: (§1) Both cell types tested (HGF and HPDL) were plated at 5×10^4 cells/well in a Lab-Tek II chamber glass slide with cover (Nalge Nunc International, Rochester, N.Y.). Approximately 400 μl of cell medium suspension was added to each well. The cells were grown overnight until confluent. Cells were pretreated with nicotine (10 mM, 8 mM and 6 mM) for two hours and then treated with antioxidants (resveratrol, trans=ferulic acid, tetrahydrocurcuminoids CG™, or phloretin) in double or triple combinations at 0.4% w/v (10^−5M). Two hours later, a scratch wound assay was performed using a sterile 10 μl pipet tip.
(§2) The cells were fixed with 4% paraformaldehyde for 30 minutes and then washed with sterile phosphate buffered saline (PBS) three times. […] The secondary antibody (1:500 Alexa Fluor® 488 goat anti-mouse IgG (H+L) (Molecular Probes, Eugene, Oreg.) was incubated for two hours at room temperature. The stained cells were washed with PBS three times. The Lab-Tek II wells were removed and the cells were cover-slipped with slowfade mounting medium. Analysis of the levels of Rac-GTP at the leading edge of the wound were determined using confocal microscopy. All treatments were recorded with the same settings on a Leica SP2 microscope. All images were taken from projected z stacks of the immunolabeled cells. Intensity of Rac-GTP immunofluorescence was determined using Nikon Elements software. […]

[4] = system: human gingival fibroblast (HGF) cells; conditions: 6, 8 or 10 mM nicotine, two hours
Experimental: Cells were then treated with a solution containing either the three antioxidants described above, or a 1:1 ratio of only two antioxidants, or only a single antioxidant. Cell migration was recorded using BioStation Live Cell Imaging (Nikon Instruments, Melvile, N.Y.) every hour for ten hours, and data presented here is for 1 hour, 5 hours, or 10 hours.

[5] = system: Rac-GTP in HPDL cells; test: Rac-GTP immunofluorescence in scratch wound assay, nicotine-exposed HPDL; format: cell-based, human; conditions: nicotine 6 mM, 8 mM, 10 mM
Experimental: as §1, §2

Molecule: ethyl alcohol [Ethanol]
- cell viability (MTS) after ethanol [1]: dose dependent effect on cell viability
- cell viability (MTS) after ethanol [2]: dose dependent effect on cell viability

Molecule: CN1CCCC1c1cccnc1 (centres unmarked) [nicotine]
- effect of nicotine on Rac-GTP expression ([3]; nicotine 6 mM, 8 mM, 10 mM): dose dependent decrease
- effect of nicotine on cell migration [4]: deleterious effect on cell migration that increased with exposure to more concentrated nicotine
- effect of nicotine on Rac-GTP expression [5]: dose dependent decrease

Molecule: COc1cc(/C=C/C(=O)O)ccc1O [trans-ferulic acid]
- increase of Rac-GTP expression over nicotine treated cells (6 mM Nic), mean pixel intensity ([3]; 6 mM nicotine two hours, then antioxidants 10^−5 M, leading edge of the wound): 35%

Molecule: OO [Formulation H2O2, hydrogen peroxide]
- viable cells (MTS) after H2O2 [1]: dose-dependent decrease of viable cells
- viable cells (MTS) after H2O2 [2]: dose-dependent decrease of viable cells
